Read-outs that look alike come from different tables or passages of the source.

Experiment [1] addresses T1, hSCN9A (Homo sapiens, UniProt Q15858).
T1 construct: expressed in transfected cells
Briefly: Whole-cell patch-clamp electrophysiology (conventional or PatchXpress), HEK cells expressing hSCN9A, estimated IC-50. Type of experiment: cell-based. To be noted: read-out: SCN9A EIC-50. Put shortly: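 Stably transfected HEK cells recorded by whole-cell voltage clamp (manual or PatchXpress) at 22–24 °C in pH 7.4 HEPES-buffered extracellular solution. Cells held at the empirically determined inactivation V1/2 after an 8 s prepulse, then stepped to 0 mV for 20 ms; % inhibition from current amplitude before vs after compound.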

Experiment [2] has as its target T2, hSCN3A (Homo sapiens, UniProt Q9NY46).
T2 construct: expressed in transfected cells
As to the kind of experiment: Whole-cell patch-clamp electrophysiology (conventional or PatchXpress), HEK cells expressing hSCN3A, estimated IC-50. To be noted: read-out: SCN3A EIC-50. Type of experiment: cell-based. How it is done: Human Embryonic Kidney (HEK) cells were transfected with hSCN3A or hSCN9A constructs using lipofectamine reagent (Invitrogen), using standard techniques. Cells stably expressing the hSCN3A or hSCN9A constructs were identified by their resistance to G-418 (400 μg/ml). Clones were screened for expression using the whole-cell voltage-clamp technique. HEK cells stably transfected with hSCN3A or hSCN9A were maintained in DMEM medium supplemented with 10% heat-inactivated fetal bovine serum and 400 μg/ml G418 sulfate in an incubator at 37° C. with a humidified atmosphere of 10% CO2. For HTS, cells were harvested from flasks by trypsinization and replated in an appropriate multi-well plate (typically 96 or 384 wells/plate) such that confluence would be achieved within 24 hours of plating. For electrophysiological studies, cells were removed from the culture flask by brief trypsinization and replated at low density onto glass cover slips. Cells were typically used for electrophysiological experiments within 24 to 72 h after plating. Cover slips containing HEK cells expressing hSCN3A or hSCN9A were placed in a bath on the stage of an inverted microscope and perfused (approximately 1 ml/min) with extracellular solution of the following composition: 138 mM NaCl, 2 mM CaCl2, 5.4 mM KCl, 1 mM MgCl2, 10 mM glucose, and 10 mM HEPES, pH 7.4, with NaOH. […] All recordings were made at room temperature (22-24° C.) using AXOPATCH 200B amplifiers and PCLAMP software (Axon Instruments, Burlingame, Calif.) or PatchXpress 7000 hardware and associated software (Axon Instruments, Burlingame, Calif.). hSCN3A or hSCN9A currents in HEK cells were measured using the whole-cell configuration of the patch-clamp technique (Hamill et al., 1981). […] As a result, voltage errors were negligible and no correction was applied. Current records were acquired at 20 to 50 KHz and filtered at 5 to 10 KHz. HEK cells stably transfected with hSCN3A or hSCN9A were viewed under Hoffman contrast optics and placed in front of an array of flow pipes emitting either control or compound-containing extracellular solutions. All compounds were dissolved in dimethyl sulfoxide to make 10 mM stock solutions, which were then diluted into extracellular solution to attain the final concentrations desired. […] The voltage-dependence of inactivation was determined by applying a series of depolarizing prepulses (8 sec long in 10 mV increments) from a negative holding potential. The voltage was then immediately stepped to 0 mV to assess the magnitude of the sodium current. Currents elicited at 0 mV were plotted as a function of prepulse potential to allow estimation of the voltage midpoint of inactivation (V1/2). Cells were then voltage clamped at the empirically determined V1/2. Compounds were tested for their ability to inhibit hSCN3A or hSCN9A sodium channels by activating the channel with a 20 msec voltage step to 0 mV following an 8 second conditioning prepulse to the empirically determined V1-2 (Table B). Compound effect (% inhibition) was determined by difference in current amplitude before and after application of test compounds. […] In some cases electrophysiological assays were conducted with PatchXpress 7000 hardware and associated software (Molecular Devices Corp) (Table B). All assay buffers and solutions were identical to those used in conventional whole-cell voltage clamp experiments described above. hSCN3A or hSCN9A containing cells were grown as above to 50%-80% confluency and harvested by trypsinization. Trypsinized cells were washed and resuspended in extracellular buffer at a concentration of 1×10^6 cells/ml. The onboard liquid handling facility of the PatchXpress was used for dispensing cells and application of test compounds. Determination of the voltage midpoint of inactivation was as described for conventional whole-cell recordings. Cells were then voltage-clamped to the empirically determined V1/2 and current was activated by a 20 msec voltage step to 0 mV.

Where [3] appears, read: commercial compounds (second Table VI), estimated IC-50 from single point electrophysiology.
Setting [4] is: estimated IC-50, HEK cells expressing hSCN9A, class symbols or bounds.
[5] abbreviates: estimated IC-50, HEK cells expressing hSCN3A, class symbols or bounds.

T2 sequence (Q9NY46 whole entry): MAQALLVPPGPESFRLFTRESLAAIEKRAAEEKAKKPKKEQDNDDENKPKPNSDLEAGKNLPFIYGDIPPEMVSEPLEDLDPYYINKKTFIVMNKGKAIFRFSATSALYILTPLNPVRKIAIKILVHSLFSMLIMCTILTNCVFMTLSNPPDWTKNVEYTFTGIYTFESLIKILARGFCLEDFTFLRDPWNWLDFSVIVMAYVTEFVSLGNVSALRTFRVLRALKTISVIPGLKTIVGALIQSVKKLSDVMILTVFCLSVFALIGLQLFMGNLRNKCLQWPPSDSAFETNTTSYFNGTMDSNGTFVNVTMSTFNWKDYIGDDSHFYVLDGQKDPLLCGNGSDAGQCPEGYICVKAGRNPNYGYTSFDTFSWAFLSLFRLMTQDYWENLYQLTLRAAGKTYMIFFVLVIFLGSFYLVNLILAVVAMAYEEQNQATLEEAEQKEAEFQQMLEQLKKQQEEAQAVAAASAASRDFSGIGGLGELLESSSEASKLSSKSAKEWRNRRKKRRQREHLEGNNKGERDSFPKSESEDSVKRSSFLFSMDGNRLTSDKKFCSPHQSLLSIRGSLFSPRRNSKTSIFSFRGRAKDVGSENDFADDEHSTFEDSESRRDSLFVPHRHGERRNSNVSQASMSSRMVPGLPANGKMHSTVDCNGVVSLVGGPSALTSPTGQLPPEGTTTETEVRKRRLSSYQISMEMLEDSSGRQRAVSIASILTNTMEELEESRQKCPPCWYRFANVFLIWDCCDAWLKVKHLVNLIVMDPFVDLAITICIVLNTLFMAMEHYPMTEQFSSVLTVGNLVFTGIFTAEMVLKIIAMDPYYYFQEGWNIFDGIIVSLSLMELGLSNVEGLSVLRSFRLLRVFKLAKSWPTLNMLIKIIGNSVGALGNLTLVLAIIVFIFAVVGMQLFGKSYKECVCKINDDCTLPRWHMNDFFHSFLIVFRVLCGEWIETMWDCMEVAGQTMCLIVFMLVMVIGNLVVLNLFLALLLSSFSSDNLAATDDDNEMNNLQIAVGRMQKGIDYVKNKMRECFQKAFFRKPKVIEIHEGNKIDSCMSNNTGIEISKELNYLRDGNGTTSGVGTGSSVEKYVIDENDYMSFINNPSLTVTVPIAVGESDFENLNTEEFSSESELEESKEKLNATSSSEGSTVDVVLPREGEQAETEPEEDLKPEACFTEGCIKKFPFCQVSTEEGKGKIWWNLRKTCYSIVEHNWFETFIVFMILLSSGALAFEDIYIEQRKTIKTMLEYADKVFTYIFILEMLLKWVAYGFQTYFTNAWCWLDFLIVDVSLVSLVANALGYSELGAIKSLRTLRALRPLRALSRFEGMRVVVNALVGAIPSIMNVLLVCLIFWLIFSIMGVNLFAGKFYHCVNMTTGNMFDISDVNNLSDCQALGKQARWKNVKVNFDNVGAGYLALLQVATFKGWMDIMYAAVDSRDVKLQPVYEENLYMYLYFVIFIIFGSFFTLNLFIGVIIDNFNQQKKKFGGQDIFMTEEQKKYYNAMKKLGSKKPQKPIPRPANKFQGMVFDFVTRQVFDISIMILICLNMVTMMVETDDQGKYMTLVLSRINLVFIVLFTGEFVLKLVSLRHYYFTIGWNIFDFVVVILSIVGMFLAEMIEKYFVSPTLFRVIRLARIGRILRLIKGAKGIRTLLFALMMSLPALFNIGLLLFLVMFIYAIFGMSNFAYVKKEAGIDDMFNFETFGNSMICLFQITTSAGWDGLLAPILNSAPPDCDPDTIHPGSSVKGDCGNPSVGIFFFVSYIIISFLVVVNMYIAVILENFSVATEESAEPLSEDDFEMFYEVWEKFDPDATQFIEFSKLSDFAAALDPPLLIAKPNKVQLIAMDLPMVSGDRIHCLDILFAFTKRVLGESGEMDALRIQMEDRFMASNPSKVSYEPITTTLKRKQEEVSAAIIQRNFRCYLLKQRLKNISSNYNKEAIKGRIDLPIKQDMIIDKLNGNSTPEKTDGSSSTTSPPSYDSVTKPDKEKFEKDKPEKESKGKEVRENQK
T1 sequence (Q15858 whole entry): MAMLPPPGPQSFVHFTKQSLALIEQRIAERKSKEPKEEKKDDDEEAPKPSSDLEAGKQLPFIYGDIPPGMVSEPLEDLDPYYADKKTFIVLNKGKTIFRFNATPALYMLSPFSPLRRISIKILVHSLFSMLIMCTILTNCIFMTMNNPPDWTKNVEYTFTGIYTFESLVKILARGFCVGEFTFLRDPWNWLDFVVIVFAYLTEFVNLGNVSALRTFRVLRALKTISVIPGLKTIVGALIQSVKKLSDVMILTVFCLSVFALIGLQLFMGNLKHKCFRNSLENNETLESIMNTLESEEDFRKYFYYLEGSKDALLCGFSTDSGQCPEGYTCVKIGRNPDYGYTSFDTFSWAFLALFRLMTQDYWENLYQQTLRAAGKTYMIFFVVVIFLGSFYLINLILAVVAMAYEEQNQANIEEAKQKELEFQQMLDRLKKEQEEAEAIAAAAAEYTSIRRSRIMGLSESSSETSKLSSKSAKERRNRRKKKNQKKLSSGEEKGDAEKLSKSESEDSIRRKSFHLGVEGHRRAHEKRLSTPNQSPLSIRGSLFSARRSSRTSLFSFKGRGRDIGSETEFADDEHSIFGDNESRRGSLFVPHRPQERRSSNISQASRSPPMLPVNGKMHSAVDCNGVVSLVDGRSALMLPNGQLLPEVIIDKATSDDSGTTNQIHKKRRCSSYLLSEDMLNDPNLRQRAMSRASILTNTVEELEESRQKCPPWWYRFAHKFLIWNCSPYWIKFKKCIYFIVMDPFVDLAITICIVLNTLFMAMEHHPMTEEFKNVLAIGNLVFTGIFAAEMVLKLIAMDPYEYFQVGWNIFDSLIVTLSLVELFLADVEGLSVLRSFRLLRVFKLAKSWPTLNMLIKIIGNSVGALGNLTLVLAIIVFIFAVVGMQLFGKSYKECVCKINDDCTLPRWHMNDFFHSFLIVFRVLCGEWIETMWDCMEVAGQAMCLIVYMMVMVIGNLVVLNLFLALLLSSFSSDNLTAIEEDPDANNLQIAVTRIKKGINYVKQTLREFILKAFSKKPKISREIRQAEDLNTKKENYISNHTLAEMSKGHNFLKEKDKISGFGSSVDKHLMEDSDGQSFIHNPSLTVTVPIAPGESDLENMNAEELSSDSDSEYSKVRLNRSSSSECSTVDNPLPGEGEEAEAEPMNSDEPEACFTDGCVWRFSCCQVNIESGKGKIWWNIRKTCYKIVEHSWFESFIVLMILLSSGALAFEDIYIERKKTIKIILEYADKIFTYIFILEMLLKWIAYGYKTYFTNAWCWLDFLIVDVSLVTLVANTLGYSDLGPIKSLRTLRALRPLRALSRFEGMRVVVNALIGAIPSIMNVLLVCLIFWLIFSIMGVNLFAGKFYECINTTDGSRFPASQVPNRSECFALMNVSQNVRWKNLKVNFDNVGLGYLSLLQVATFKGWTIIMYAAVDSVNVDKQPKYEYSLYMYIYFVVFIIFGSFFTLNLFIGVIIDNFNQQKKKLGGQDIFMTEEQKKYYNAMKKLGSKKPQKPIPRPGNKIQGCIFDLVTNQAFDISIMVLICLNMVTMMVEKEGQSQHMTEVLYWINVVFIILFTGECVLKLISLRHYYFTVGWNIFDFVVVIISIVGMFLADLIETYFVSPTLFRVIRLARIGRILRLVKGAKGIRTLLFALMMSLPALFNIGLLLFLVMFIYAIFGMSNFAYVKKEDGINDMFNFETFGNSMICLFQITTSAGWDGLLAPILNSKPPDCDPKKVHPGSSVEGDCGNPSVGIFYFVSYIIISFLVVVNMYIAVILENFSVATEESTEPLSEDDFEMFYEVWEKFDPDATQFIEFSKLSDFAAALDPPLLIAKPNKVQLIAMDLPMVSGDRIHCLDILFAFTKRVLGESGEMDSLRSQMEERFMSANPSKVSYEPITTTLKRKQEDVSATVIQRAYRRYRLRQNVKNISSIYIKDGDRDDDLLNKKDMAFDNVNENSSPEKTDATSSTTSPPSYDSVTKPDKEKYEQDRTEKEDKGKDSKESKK

Consider `CCOC(=O)C1(C)C=C(Nc2ccc(S(=O)(=O)Nc3nccs3)cc2)C(=O)N1c1ccccc1` (stereo not shown) [Compound 38, ethyl 2-methyl-5-oxo-1-phenyl-4-(4-(N-thiazol-2-ylsulfamoyl)phenylamino)-2,5-dihydro-1H-pyrrole-2-carboxylate, reference compound], for which the IC50 in experiment [1] (setting [3]) is greater than 3 µM; in experiment [2] (setting [3]), greater than 1 µM.

As to `Cc1nnc(Nc2ccc(S(=O)(=O)Nc3nccs3)cc2)c2ccccc12` [Compound 39, 4-(4-methylphthalazin-1-ylamino)-N-(thiazol-2-yl)benzenesulfonamide, reference compound], the IC50 in experiment [1] (setting [3]) is greater than 3 µM; in experiment [2] (setting [3]), greater than 1 µM.

As for `O=S(=O)(Nc1nccs1)c1ccc(Nc2nnc(-c3ccc(Cl)cc3)c3ccccc23)cc1` [Compound 40, 4-(4-(4-chlorophenyl)phthalazin-1-ylamino)-N-(thiazol-2-yl)benzenesulfonamide, reference compound], the IC50 was 3.49 µM in experiment [1] (setting [3]) and 1.32 µM in experiment [2] (setting [3]).

As for `Cc1ccc(-c2nnc(Nc3ccc(S(=O)(=O)Nc4nccs4)cc3)c3ccccc23)cc1` [Compound 41, N-(thiazol-2-yl)-4-(4-p-tolylphthalazin-1-ylamino)benzenesulfonamide, reference compound], the IC50 in experiment [1] (setting [3]) is greater than 3 µM; in experiment [2] (setting [3]) it was 1.61 µM.

For the compound `O=S(=O)(Nc1nccs1)c1ccc(Nc2nnc(-c3ccccc3)c3ccccc23)cc1` [Compound 42, 4-(4-phenylphthalazin-1-ylamino)-N-(thiazol-2-yl)benzenesulfonamide, reference compound], the IC50 in experiment [1] (setting [3]) was greater than 3 µM; in experiment [2] (setting [3]) it was 2.03 µM.

For `O=S(=O)(Nc1nccs1)c1ccc(Nc2nc(-c3ccccc3)cs2)cc1` [Compound 43, 4-(4-phenylthiazol-2-ylamino)-N-(thiazol-2-yl)benzenesulfonamide], the IC50 in experiment [1] (setting [4]) is 2 to 10 µM; in experiment [2] (setting [5]) it was greater than 1 µM.

Turning to `O=S(=O)(Nc1nccs1)c1ccc(Nc2ncccn2)cc1` [Compound 44, 4-(pyrimidin-2-ylamino)-N-(thiazol-2-yl)benzenesulfonamide], the IC50 in experiment [1] (setting [4]) was greater than 3 µM; in experiment [2] (setting [5]), greater than 1 µM.

For `O=S(=O)(Nc1nccs1)c1ccc(Nc2nccc(OCc3ccccc3)n2)cc1` [Compound 45, 4-(4-(benzyloxy)pyrimidin-2-ylamino)-N-(thiazol-2-yl)benzenesulfonamide], the IC50 in experiment [1] (setting [4]) was greater than 10 µM; in experiment [2] (setting [5]), less than 2 µM.

In the case of `O=S(=O)(Nc1nccs1)c1ccc(Nc2nccc(OCC(c3ccccc3)c3ccccc3)n2)cc1` [Compound 46, 4-(4-(2,2-diphenylethoxy)pyrimidin-2-ylamino)-N-(thiazol-2-yl)benzenesulfonamide], the figures for the IC50 in experiment [1] (setting [4]) and in experiment [2] (setting [5]) were greater than 10 µM and less than 2 µM, respectively.

Regarding `O=S(=O)(Nc1nccs1)c1ccc(Nc2nc(-c3ccccc3)c(-c3ccccc3)s2)cc1` [Compound 47, 4-(4,5-diphenylthiazol-2-ylamino)-N-(thiazol-2-yl)benzenesulfonamide], the IC50 in experiment [1] (setting [4]) was greater than 3 µM; in experiment [2] (setting [5]), less than 2 µM.

As for `O=S(=O)(Nc1nccs1)c1ccc(Nc2nc(COc3ccccc3)cs2)cc1` [Compound 48, 4-(4-(phenoxymethyl)thiazol-2-ylamino)-N-(thiazol-2-yl)benzenesulfonamide], the IC50 in experiment [1] (setting [4]) was greater than 1 µM; in experiment [2] (setting [5]), less than 2 µM.

Turning to `O=S(=O)(Nc1nccs1)c1ccc(Nc2nc(CC(c3ccccc3)c3ccccc3)cs2)cc1` [Compound 49, 4-(4-(2,2-diphenylethyl)thiazol-2-ylamino)-N-(thiazol-2-yl)benzenesulfonamide], the IC50 in experiment [1] (setting [4]) and in experiment [2] (setting [5]) was less than 2 µM in each case.

Regarding `O=S(=O)(Nc1nccs1)c1ccc(Nc2nc(CCCOc3ccccc3)cs2)cc1` [Compound 50, 4-(4-(3-phenoxypropyl)thiazol-2-ylamino)-N-(thiazol-2-yl)benzenesulfonamide], the IC50 in experiment [1] (setting [4]) was 2 to 10 µM; in experiment [2] (setting [5]) it was less than 2 µM.

As for `O=S(=O)(Nc1nccs1)c1ccc(Nc2nc(CCC3CCCC3)cs2)cc1` [Compound 51, 4-(4-(2-cyclopentylethyl)thiazol-2-ylamino)-N-(thiazol-2-yl)benzenesulfonamide], the values for the IC50 in experiment [1] (setting [4]) and in experiment [2] (setting [5]) were 2 to 10 µM and less than 2 µM, respectively.

Turning to `O=S(=O)(Nc1nccs1)c1ccc(Nc2nc(COc3ccc(Cl)cc3)cs2)cc1` [Compound 52, 4-(4-((4-chlorophenoxy)methyl)thiazol-2-ylamino)-N-(thiazol-2-yl)benzenesulfonamide], the IC50 in experiment [1] (setting [4]) and in experiment [2] (setting [5]) was less than 2 µM each time.

As to `O=S(=O)(Nc1nccs1)c1ccc(Nc2nc(C3CC3c3ccccc3)cs2)cc1` (stereo not shown) [Compound 53, 4-(4-(2-phenylcyclopropyl)thiazol-2-ylamino)-N-(thiazol-2-yl)benzenesulfonamide], the IC50 was greater than 1 µM in experiment [1] (setting [4]) and less than 2 µM in experiment [2] (setting [5]).

As for `O=S(=O)(Nc1nccs1)c1ccc(Nc2nccc(OCc3ccccc3F)n2)cc1` [Compound 54, 4-(4-(2-fluorobenzyloxy)pyrimidin-2-ylamino)-N-(thiazol-2-yl)benzenesulfonamide], the values for the IC50 in experiment [1] (setting [4]) and in experiment [2] (setting [5]) were greater than 1 µM and 2 to 10 µM, respectively.

For `O=S(=O)(Nc1nccs1)c1ccc(Nc2nccc(OCc3ccc(C(F)(F)F)cc3)n2)cc1` [Compound 55, N-(thiazol-2-yl)-4-(4-(4-(trifluoromethyl)benzyloxy)pyrimidin-2-ylamino)benzenesulfonamide], the figures for the IC50 in experiment [1] (setting [4]) and in experiment [2] (setting [5]) were greater than 1 µM and less than 2 µM, respectively.

For `O=S(=O)(Nc1nccs1)c1ccc(Nc2nc(CNCC(c3ccccc3)c3ccccc3)cs2)cc1` [Compound 56, 4-(4-((2,2-diphenylethylamino)methyl)thiazol-2-ylamino)-N-(thiazol-2-yl)benzenesulfonamide], the IC50 in experiment [1] (setting [4]) and in experiment [2] (setting [5]) was less than 2 µM throughout.

Consider `O=S(=O)(Nc1nccs1)c1ccc(Nc2nc(CNCCOc3ccccc3)cs2)cc1` [Compound 57, 4-(4-((2-phenoxyethylamino)methyl)thiazol-2-ylamino)-N-(thiazol-2-yl)benzenesulfonamide], for which the IC50 in experiment [1] (setting [4]) was greater than 1 µM; in experiment [2] (setting [5]), 2 to 10 µM.

As for `O=S(=O)(Nc1nccs1)c1ccc(Nc2nc(CN3CCC[C@H]3CN3CCCC3)cs2)cc1` [Compound 58, (S)-4-(4-((2-(pyrrolidin-1-ylmethyl)pyrrolidin-1-yl)methyl)thiazol-2-ylamino)-N-(thiazol-2-yl)benzenesulfonamide], the IC50 in experiment [1] (setting [4]) is 2 to 10 µM; in experiment [2] (setting [5]), greater than 1 µM.

Consider `O=S(=O)(Nc1nccs1)c1ccc(Nc2nc(CNC(c3ccccc3)c3ccccc3)cs2)cc1` [Compound 60, 4-(4-((benzhydrylamino)methyl)thiazol-2-ylamino)-N-(thiazol-2-yl)benzenesulfonamide], for which the IC50 in experiment [1] (setting [4]) is 2 to 10 µM; in experiment [2] (setting [5]), less than 2 µM.

Regarding `O=S(=O)(Nc1nccs1)c1ccc(Nc2nc(CNCCC(c3ccccc3)c3ccccc3)cs2)cc1` [Compound 61, 4-(4-((3,3-diphenylpropylamino)methyl)thiazol-2-ylamino)-N-(thiazol-2-yl)benzenesulfonamide], the IC50 in experiment [1] (setting [4]) and in experiment [2] (setting [5]) was less than 2 µM throughout.

The values above are taken from US8124610B2, “Sodium channel inhibitors” (Icagen Inc., priority 2007, dated 2012).
